Data reported in ChEMBL document CHEMBL1145864, “Synthesis and structure-activity relationship of a new series of COX-2 selective inhibitors: 1,5-diarylimidazoles” (J Med Chem, 2003).
pIC50: −log10 of the molar value.

Assays:
Rattus norvegicus = assay: In vivo anti-inflammatory activity determined by rat carrageenan paw edema method at 10 mg/kg perorally; assay type: functional; details: route oral
[1] = molecular target: Prostaglandin G/H synthase 1 (Homo sapiens, UniProt P23219); assay type: cell-based, U-937
Prostaglandin G/H synthase 1, sequence (P23219 whole entry): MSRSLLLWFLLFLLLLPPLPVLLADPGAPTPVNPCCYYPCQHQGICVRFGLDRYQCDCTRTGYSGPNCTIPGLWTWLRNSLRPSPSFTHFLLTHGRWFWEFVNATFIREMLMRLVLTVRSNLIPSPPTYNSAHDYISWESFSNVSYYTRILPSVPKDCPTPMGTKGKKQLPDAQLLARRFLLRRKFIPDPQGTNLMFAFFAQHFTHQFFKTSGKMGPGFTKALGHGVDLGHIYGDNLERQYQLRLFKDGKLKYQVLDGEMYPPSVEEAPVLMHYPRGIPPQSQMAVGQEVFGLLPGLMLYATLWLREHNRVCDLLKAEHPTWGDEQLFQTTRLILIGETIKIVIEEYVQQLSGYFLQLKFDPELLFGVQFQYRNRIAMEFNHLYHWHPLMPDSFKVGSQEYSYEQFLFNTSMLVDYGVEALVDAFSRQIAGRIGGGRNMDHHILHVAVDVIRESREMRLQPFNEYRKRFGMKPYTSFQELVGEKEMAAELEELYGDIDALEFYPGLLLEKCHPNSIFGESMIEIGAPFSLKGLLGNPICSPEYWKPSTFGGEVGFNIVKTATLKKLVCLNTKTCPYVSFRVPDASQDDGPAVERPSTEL
Description: In vitro inhibitory activity against human Prostaglandin G/H synthase 1 (COX-1) in U-937 cells

[2] = molecular target: T1, Prostaglandin G/H synthase 2 (Homo sapiens) (UniProt P35354); details: Blood; at 10 µM
T1 sequence (whole entry): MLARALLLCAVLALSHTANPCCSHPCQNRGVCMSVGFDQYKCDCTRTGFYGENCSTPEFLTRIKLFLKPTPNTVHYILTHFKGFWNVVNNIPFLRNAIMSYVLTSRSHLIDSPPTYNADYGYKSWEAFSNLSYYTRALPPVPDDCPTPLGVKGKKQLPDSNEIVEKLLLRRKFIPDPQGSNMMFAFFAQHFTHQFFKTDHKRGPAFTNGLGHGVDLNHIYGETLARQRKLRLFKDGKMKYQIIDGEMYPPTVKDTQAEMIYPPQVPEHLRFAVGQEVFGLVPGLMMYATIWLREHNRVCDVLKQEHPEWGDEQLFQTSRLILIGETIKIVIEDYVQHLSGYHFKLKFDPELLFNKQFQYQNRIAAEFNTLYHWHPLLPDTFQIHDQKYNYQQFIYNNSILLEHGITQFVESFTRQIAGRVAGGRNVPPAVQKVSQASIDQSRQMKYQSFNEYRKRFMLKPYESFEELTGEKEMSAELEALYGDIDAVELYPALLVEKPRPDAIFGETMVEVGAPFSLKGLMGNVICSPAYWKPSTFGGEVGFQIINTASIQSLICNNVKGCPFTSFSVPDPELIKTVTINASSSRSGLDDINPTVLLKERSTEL
Description: Inhibition of Prostaglandin G/H synthase 2 (COX-2) in human whole blood at 10 uM

[3] = molecular target: T1, Prostaglandin G/H synthase 2 (Homo sapiens); details: Blood; at 1 µM

| SMILES | inhibition in vivo at 10 mg/kg (Rattus norvegicus) [%] | pIC50 [1] | inhibition [2] [%] | inhibition [3] [%] |
| --- | --- | --- | --- | --- |
| Cc1ncc(-c2ccc(S(C)(=O)=O)cc2)n1-c1ccc(F)cc1 | 21.7 | < 5.00 | 68 | – |
| CS(=O)(=O)c1ccc(-n2cnc(Cl)c2-c2cccc(F)c2)cc1 | 22.8 | < 5.00 | 100 | 51.9 |
| CS(=O)(=O)c1ccc(-c2cncn2-c2ccc(F)cc2)cc1 | – | < 5.00 | 63.4 | – |
| CS(=O)(=O)c1ccc(-n2cnc(Cl)c2-c2cc(F)cc(F)c2)cc1 | – | < 5.00 | 61.6 | – |
| CCSc1ccc(-c2c(Cl)ncn2-c2ccc(S(C)(=O)=O)cc2)cc1 | 12.3 | < 5.00 | 97.3 | 76.7 |
| CS(=O)(=O)c1ccc(-c2cnc(CO)n2-c2ccc(F)cc2)cc1 | – | < 5.00 | 8.1 | – |
| CS(=O)(=O)c1ccc(-n2cnc(Cl)c2-c2cc(Br)co2)cc1 | – | < 6.00 | – | – |
| CCOc1ccc(-c2c(Cl)ncn2-c2ccc(S(C)(=O)=O)cc2)cc1Cl | 2 | < 5.00 | 100 | 47.7 |
| Cc1nc(Cl)c(-c2ccc(F)cc2)n1-c1ccc(S(C)(=O)=O)cc1 | – | < 5.00 | 27.5 | – |
| CS(=O)(=O)c1ccc(-c2c(Br)ncn2-c2ccc(F)cc2)cc1 | – | < 5.00 | 36 | – |
| CCOc1ccc(-c2c(Cl)ncn2-c2ccc(S(N)(=O)=O)cc2)cc1F | 30.3 | 4.12 | 100 | 57 |
| CCCc1ccc(-c2c(Cl)ncn2-c2ccc(S(C)(=O)=O)cc2)cc1 | 0 | < 5.00 | 91.9 | 60 |
| CC(C)Oc1ccc(-c2c(Cl)ncn2-c2ccc(S(C)(=O)=O)cc2)cc1 | – | < 5.00 | – | – |
| Cc1cc(-c2c(Cl)ncn2-c2ccc(S(C)(=O)=O)cc2)ccc1Cl | – | 5.40 | 100 | – |
| CS(=O)(=O)c1ccc(-n2cnc(Cl)c2-c2ccc(OC(F)(F)F)cc2)cc1 | – | < 5.00 | – | – |
| COc1cc(-c2c(Cl)ncn2-c2ccc(S(C)(=O)=O)cc2)ccc1C | 9.2 | < 5.00 | 100 | 77.1 |
| CS(=O)(=O)c1ccc(-n2c(-c3ccc(F)cc3)cnc2C(=O)c2ccccc2)cc1 | – | < 5.00 | 0 | – |
| CC1Cc2cc(-c3c(Cl)ncn3-c3ccc(S(C)(=O)=O)cc3)ccc2O1 (stereo unspecified) | – | < 5.00 | 59.9 | – |
| CS(=O)(=O)c1ccc(-n2cnc(Cl)c2-c2ccc3c(c2)CCO3)cc1 | 29 | 6.96 | 65.5 | 69.9 |
| CS(=O)(=O)c1ccc(-n2cnc(Cc3ccccc3)c2-c2ccc(F)cc2)cc1 | – | < 5.00 | 60.5 | – |
| CC(=O)Nc1ccc(-c2c(Cl)ncn2-c2ccc(S(C)(=O)=O)cc2)cc1 | – | < 5.00 | – | – |
| CS(=O)(=O)c1ccc(-n2c(-c3ccc(F)cc3)cnc2Cl)cc1 | – | < 5.00 | – | – |
| CS(=O)(=O)c1ccc(-c2c(Cl)nc(Cl)n2-c2ccc(F)cc2)cc1 | – | < 5.00 | 51.6 | – |
| CS(=O)(=O)c1ccc(-n2cnc(Cl)c2-c2ccc(F)cc2F)cc1 | 8.6 | 4.62 | 100 | 79.6 |
| CS(=O)(=O)c1ccc(-c2cnc(CF)n2-c2ccc(F)cc2)cc1 | – | < 5.00 | 16.8 | – |
| CS(=O)(=O)c1ccc(-n2cnc(Cl)c2-c2cc3ccccc3o2)cc1 | – | < 6.00 | – | – |

| SMILES | inhibition in vivo at 10 mg/kg (Rattus norvegicus) [%] | pIC50 [1] | inhibition [2] [%] | inhibition [3] [%] |
| --- | --- | --- | --- | --- |
| CS(=O)(=O)c1ccc(-n2c(Cl)nc(Cl)c2-c2ccc(F)cc2)cc1 | – | < 5.00 | 0 | – |
| Cc1nc(Cl)n(-c2ccc(F)cc2)c1-c1ccc(S(C)(=O)=O)cc1 | – | < 5.00 | 42.6 | – |
| CS(=O)(=O)c1ccc(-n2cnc(Cl)c2-c2cccnc2)cc1 | 19 | < 5.00 | 100 | 74.9 |
| CCS(=O)(=O)c1ccc(-c2c(Cl)ncn2-c2ccc(S(C)(=O)=O)cc2)cc1 | – | < 5.00 | – | – |
| COc1c(Cl)cc(-c2c(Cl)ncn2-c2ccc(S(C)(=O)=O)cc2)cc1Cl | 16.5 | < 5.00 | 99.8 | 37.3 |
| COC(=O)c1ncc(-c2ccc(S(C)(=O)=O)cc2)n1-c1ccc(F)cc1 | – | < 5.00 | 39.1 | – |
| CC(C)c1ccc(-c2c(Cl)ncn2-c2ccc(S(C)(=O)=O)cc2)cc1 | 17 | < 5.00 | 100 | 70 |
| CS(=O)(=O)c1ccc(-n2cnc(Cl)c2-c2ccc(Cl)cc2)cc1 | 9.1 | < 5.00 | 100 | 88.4 |
| CCOc1ccc(-c2c(Cl)ncn2-c2ccc(S(C)(=O)=O)cc2)cc1F | 14.1 | < 5.00 | 95.2 | 96.5 |
| CCOc1cc(OCC)cc(-c2c(Cl)ncn2-c2ccc(S(C)(=O)=O)cc2)c1 | – | < 5.00 | 0 | – |
| COc1ccc(-c2c(Cl)ncn2-c2ccc(S(C)(=O)=O)cc2)cc1 | 33.4 | 5.89 | 100 | 100 |
| COc1ccc(-c2c(Cl)ncn2-c2ccc(S(C)(=O)=O)cc2)c(F)c1 | 33 | 6.96 | 100 | 100 |
| CS(=O)(=O)c1ccc(-n2cnc(Cl)c2-c2ccccc2F)cc1 | 21.5 | 4.00 | 100 | 66.2 |
| CS(=O)(=O)c1ccc(-n2cncc2-c2ccc(F)cc2)cc1 | – | < 5.00 | 56.9 | – |
| CS(=O)(=O)c1ccc(-n2c(-c3ccc(F)cc3)cnc2CO)cc1 | – | < 5.00 | 27.4 | – |
| C=CCc1ncn(-c2ccc(S(C)(=O)=O)cc2)c1-c1ccc(F)cc1 | – | < 5.00 | 3.4 | – |
| CCc1ncn(-c2ccc(S(C)(=O)=O)cc2)c1-c1ccc(F)cc1 | – | < 5.00 | 3.8 | – |
| CS(=O)(=O)c1ccc(-c2cnc(C(=O)c3ccccc3)n2-c2ccc(F)cc2)cc1 | – | < 5.00 | 95 | – |
| CCCCCc1ncn(-c2ccc(S(C)(=O)=O)cc2)c1-c1ccc(F)cc1 | – | < 5.00 | 64.4 | – |
| CCCOc1ccc(-c2c(Cl)ncn2-c2ccc(S(C)(=O)=O)cc2)cc1 | – | < 5.00 | – | 0 |
| CS(=O)(=O)c1ccc(-n2c(CO)nc(Cl)c2-c2ccc(F)cc2)cc1 | – | < 5.00 | 2.4 | – |
| CS(=O)(=O)c1ccc(-c2cnc(C=O)n2-c2ccc(F)cc2)cc1 | 27.5 | < 5.00 | 70.9 | – |
| COc1ccc(-c2c(Cl)ncn2-c2ccc(S(N)(=O)=O)cc2)cc1Cl | 24 | 5.92 | 99.9 | – |
| CS(=O)(=O)c1ccc(-c2c(Cl)ncn2-c2ccc(F)cc2)cc1 | – | < 5.00 | 15.3 | – |
| CS(=O)(=O)c1ccc(-n2cnc(Cl)c2-c2ccc(N)cc2)cc1 | 15.3 | < 5.00 | 71.6 | – |
